Article PMC5004205, “Spiro[pyrrolidine-3, 3´-oxindole] as potent anti-breast cancer compounds: Their design, synthesis, biological evaluation and cellular target identification” (Scientific Reports, 2016)
In brackets after ≈: the same amount, converted by molar mass. Several values for one entry are separate records, joined by “and”; a condition that tells them apart may be missing. Equal entries are not always repeated. Entries after “also recorded” stand apart in the source; their conditions may differ. One block for each compound: values may come before it.

Tests used:
[1] = tested on: MCF-7 breast cancer cells; assay: MTT colorimetric cell viability assay, MCF-7; type: cell-based; settings: for inhibition at 50 µM / EC50: Homo sapiens; for inhibition at 50 µM: MCF7, 48 hours, MTT, triplicates, read-out: Percentage inhibition MCF-7; for CTRL-TST/CTRL*100 (inhibition) MCF-7: EC50 plate; for EC50: MCF7, MTT, mean of three experiments
Procedure: MCF-7 cells were maintained as monolayer in 25 cm^2 culture flasks (T-25) at 37 °C in DMEM medium (GIBCO, St. Louis, USA) supplemented with high glucose, L-glutamine, pyridoxine hydrochloride, 110 mg/L sodium pyruvate, 3.7 g/L NaHCO3 and antibiotics (Penicillin-10,000 units/mL, Streptomycin −10,000 μg/mL, GIBCO, USA). Growth medium (pH 7.4) was prepared by adding 5% heat inactivated FBS (Fetal Bovine Serum, GIBCO, USA) and stored at 4 °C. The medium was changed 10–18 hrs prior to experiment, and cells were confluent at the time of experimentation. Cells were dislodged from flasks by gentle trypsinization containing 0.25% Trypsin. MCF-7 cells were regularly sub-cultured thrice a week in a seeding density of 40,000–50,000 cells/cm^2area. Cell confluency = 70%
The MTT colorimetric viability assay was performed to evaluate the anticancer effect of compounds. 30,000 cells/100 μl of media were seeded per well and allowed to stretch and adhere overnight at 37 °C. Following day media was removed and 100 μl fresh media was added to the grown cells. […] There was one positive and one negative control along with 13 compounds. The results were measured all in triplicate in 45 wells of 96 well plate at each time point. Cytotoxic effect was evaluated using ability of live cells to cleave MTT ((3-[4, 5- dimethylthiazol-2-yl]-2, 5-diphenyl tetrazolium bromide)) (Sigma-Aldrich, St Louis, MO, USA), into formazan crystals. Post 48 hours of treatment, 10 μl of MTT (5 mg/ml in PBS) was added to the cells and incubated for 4 hours in dark at 37 °C. The violet colored crystals formed were then dissolved in 100 μl DMSO solvent (Dimethyl Sulfoxide, Sigma-Aldrich, St. Louis, MO, USA). The colorimetric assay was read by a MultiMode Plate Reader (Bio-Rad) at 595 nm. Percentage of Inhibition of drug was calculated by following formula:
O.D1 O.D2 O.D3 AVG CTRL-TST CTRL-TST/CTRL*100 stdev

COS-7 cells = assay: MTT colorimetric cell viability assay, COS-7; type: cell-based; settings: for inhibition at 50 µM: Chlorocebus aethiops, COS-7, MTT, triplicates, read-out: Percentage inhibition COS-7
Procedure: (§1) The MTT colorimetric viability assay was performed to evaluate the anticancer effect of compounds. 30,000 cells/100 μl of media were seeded per well and allowed to stretch and adhere overnight at 37 °C. Following day media was removed and 100 μl fresh media was added to the grown cells. Adhered cells were then treated with the compounds 5a-m dissolved in DMSO in triplicates at a standard concentration of 50 μM for 48 hours. There was one positive and one negative control along with 13 compounds. The results were measured all in triplicate in 45 wells of 96 well plate at each time point. Cytotoxic effect was evaluated using ability of live cells to cleave MTT ((3-[4, 5- dimethylthiazol-2-yl]-2, 5-diphenyl tetrazolium bromide)) (Sigma-Aldrich, St Louis, MO, USA), into formazan crystals. Post 48 hours of treatment, 10 μl of MTT (5 mg/ml in PBS) was added to the cells and incubated for 4 hours in dark at 37 °C. The violet colored crystals formed were then dissolved in 100 μl DMSO solvent (Dimethyl Sulfoxide, Sigma-Aldrich, St. Louis, MO, USA). The colorimetric assay was read by a MultiMode Plate Reader (Bio-Rad) at 595 nm. Percentage of Inhibition of drug was calculated by following formula: […]

MCF10A cells = assay: MTT cytotoxicity assay, MCF10A; type: cell-based; settings: for CTRL-TST/CTRL*100 MCF10A cytotoxicity / Percentage inhibition MCF10A: 48 hours; for CTRL-TST/CTRL*100 MCF10A cytotoxicity: 595 nm; for Percentage inhibition MCF10A: MTT
Procedure: MCF10A was obtained from American Tissue Type Culture Collection (ATCC, Bethesda, MD). All cells were grown in a humidified atmosphere at 37 °C, with 5% CO2 in air.
as §1
Cytotoxicity assay with MCF 10A
Experiment :MCF10A cytotoxicity assay 48 hours
Raw Data{Wavelength:595.0}
O.D1 O.D2 O.D3 AVG CTRL-TEST CTRL-TST/CTRL*100
(1 picture or pasted object on this page, not shown here)

MCF-7 cells [2] = settings: cited from earlier work
PKCα kinase = tested on: PKCα kinase; set-up: method as in Shantani UPT Application Notes; settings: at 1μM; ref Shantani UPT Application Notes; cited from earlier work
MCF-7 cells [3] = assay: Cell migration (scratch) assay; type: cell-based; settings: 24 hours, compared to untreated cells
Procedure: MCF-7 cells were grown to confluence in six-well tissue culture plastic dishes to a density of ∼0.2 million cells/well. After 24 hrs of seeding, cells were treated with chemical compounds. The medium was removed and the cells were scratched by 200 μL pipette micro tip through the center of the plate. The cultures were washed to remove debris and re-cultured with DMEM containing 10% FBS for cell migration. The cells were imaged at 24 hrs and the migrated distance was measured. Migration rate was calculated by counting five to seven fields per image and the results presented as the average of three independent experiments performed over multiple days.

MCF-7 cells [4] = assay: DNA fragmentation (DNA-ladder) assay; type: cell-based; settings: MCF-7, gel electrophoresis
Procedure: The DMSO (dimethyl sulphoxide)–SDS (sodium dodecyl sulphate)–TE (Tris-EDTA) method: 2 million MCF-7cells were taken as starting material for DNA isolation. Cells were dislodged with Trypsin-EDTA and washed with 1 X PBS. DMSO was added directly to the cell pellet (100 μl) and mixed well by pipetting. TE buffer (pH 7.4) with 2% SDS was added into the mixture with same volume, followed by pipetting. The solution was centrifuged at 3000 rpm at 4 °C and 30 μL of the supernatant was loaded on agarose gel to check the effect of drugs on DNA molecule.

MCF-7 cells [5] = assay: Annexin V/propidium iodide FACS assay; type: cell-based
Procedure: The assay is based on the ability of the protein annexin V to bind to phosphatidylserine (PS) exposed on the outer membrane leaflet in apoptotic cells (PS also appears on the necrotic cell surface). The annexin V assay was performed following the manufacturer’s instructions (Annexin V-FITC kit,Alexa Fluor). Briefly, the cells were washed with PBS and suspended in pre-diluted binding buffer. The cell density was adjusted to 2 million and 195 μl of cell suspension were mixed with 5 μl Annexin V-FITC and incubated for 10 min in the dark at room temperature. The cells were washed with binding buffer, re-suspended in 195 μl binding buffer, counterstained with 10 μl of the 20 μg/ml propidium iodide stock (final concentration 1 μg/ml) and the data were acquired by BD FACS diva 7.0 at 6 h, 12 h and 24 h.

Compound: COc1ccc(C2NCCC23C(=O)Nc2ccccc23)cc1 (centres unmarked) [Compound 5h]
inhibition at 50 µM [1]: 50.62 ± 0.24% | inhibition at 50 µM (COS-7 cells): 25.2 ± 0.06%

Compound: O=C1Nc2ccccc2C12CCNC2c1cccc(C(F)(F)F)c1 (centres unmarked) [Compound 5b]
inhibition at 50 µM [1]: 33.1 ± 0.12% | inhibition at 50 µM (COS-7 cells): 20.73 ± 0.11%

EC50 [1]: 6 µM
Compound: O=C1Nc2ccccc2C12CCNC2c1cccc(F)c1 (centres unmarked) [Compound 5e]
CTRL-TST/CTRL*100 (inhibition) MCF-7 ([1]; concentration row 10): -4.013 | CTRL-TST/CTRL*100 (inhibition) MCF-7 ([1]; concentration row 20): 8.388 | CTRL-TST/CTRL*100 (inhibition) MCF-7 ([1]; concentration row 30): 23.78 | CTRL-TST/CTRL*100 (inhibition) MCF-7 ([1]; concentration row 40): 31.55 | CTRL-TST/CTRL*100 (inhibition) MCF-7 ([1]; concentration row 50): 52.5 | inhibition at 50 µM [1]: 54.67 ± 0.08% | Inhibition of proliferation of healthy COS-7 cells (COS-7 cells): did not inhibit the proliferation | inhibition at 50 µM (COS-7 cells): 3.56 ± 0.19% | Effect on proliferation of healthy MCF10A cells (MCF10A cells): did not inhibit the proliferation; also recorded: little or no effect | CTRL-TST/CTRL*100 MCF10A cytotoxicity (MCF10A cells): 4.48 | Percentage inhibition MCF10A (MCF10A cells): 4.48%

Compound: O=C1Nc2ccccc2C12CCNC2c1c(F)cccc1F (centres unmarked) [Compound 5d]
inhibition at 50 µM [1]: 44.25 ± 0.17% | inhibition at 50 µM (COS-7 cells): 9.22 ± 0.12%

Compound: Cc1cc(C)cc(C2NCCC23C(=O)Nc2ccccc23)c1 (centres unmarked) [Compound 5c]
inhibition at 50 µM [1]: 34.46 ± 0.11% | inhibition at 50 µM (COS-7 cells): 28.8 ± 0.13%

Compound: COc1cc([C@@H]2c3cc4c(cc3[C@@H](O[C@@H]3O[C@@H]5CO[C@@H](C)O[C@H]5[C@H](O)[C@H]3O)[C@H]3COC(=O)[C@H]23)OCO4)cc(OC)c1O [Etoposide, reference compound]
inhibition at 50 µM [1]: 71.95 ± 0.11% | CTRL-TST/CTRL*100 (inhibition) MCF-7, positive control ([1]; eto control row of the EC50 plates of 5l, 5e, 5i, concentration not given, listed as eto): 70.96 and 73.49 and 73.1582 | inhibition at 50 µM (COS-7 cells): 77.65 ± 0.1%

Compound: CS[C@@]1(C)C(=O)N(C)[C@@](Cc2c[nH]c3ccccc23)(SC)C(=O)N1C [Chaetocochins G]
IC50 in MCF-7 (MCF-7 cells [2]): 16.9 µg/mL (≈ 44.8 µM) | Mode of cell death (MCF-7 cells [2]): Induces Apoptosis

Compound: COc1ccc(C2NCCC23C(=O)Nc2ccccc23)cc1C (centres unmarked) [Compound 5k]
inhibition at 50 µM [1]: 44.4 ± 0.09% | inhibition at 50 µM (COS-7 cells): 7.14 ± 0.19%

Compound: Bisindolylmaleimide-III [Bis-III]
Inhibition of PKCα kinase activity (PKCα kinase): 93%

EC50 [1]: 4.01 µM
Compound: COc1cc(OC)c(C2NCCC23C(=O)Nc2ccccc23)cc1OC (centres unmarked) [Compound 5i]
CTRL-TST/CTRL*100 (inhibition) MCF-7 ([1]; concentration row 10): 7.139 | CTRL-TST/CTRL*100 (inhibition) MCF-7 ([1]; concentration row 20): 20.22 | CTRL-TST/CTRL*100 (inhibition) MCF-7 ([1]; concentration row 30): 43.4 | CTRL-TST/CTRL*100 (inhibition) MCF-7 ([1]; concentration row 40): 50.54 | CTRL-TST/CTRL*100 (inhibition) MCF-7 ([1]; concentration row 50): 66.16 | inhibition at 50 µM [1]: 53.66 ± 0.06% | Inhibition of proliferation of healthy COS-7 cells (COS-7 cells): did not inhibit the proliferation | inhibition at 50 µM (COS-7 cells): 15.6 ± 0.09% | Effect on proliferation of healthy MCF10A cells (MCF10A cells): did not inhibit the proliferation; also recorded: little or no effect | CTRL-TST/CTRL*100 MCF10A cytotoxicity (MCF10A cells): 0.8 | Percentage inhibition MCF10A (MCF10A cells): 0.8% | Inhibition of cell migration of MCF-7 cells (MCF-7 cells [3]): inhibit cell migration | DNA fragmentation pattern / mode of cell death (MCF-7 cells [4]): smearing of DNA fragments | Mode of cell death by Annexin-PI FACS (MCF-7 cells [5]): necrosis was also confirmed

Compound: Cc1ccc(C2NCCC23C(=O)Nc2ccccc23)cc1 (centres unmarked) [Compound 5a]
inhibition at 50 µM [1]: 35.06 ± 0.09% | inhibition at 50 µM (COS-7 cells): 11.73 ± 0.09%

Compound: COc1ccc(C2NCCC23C(=O)Nc2ccccc23)c(F)c1 (centres unmarked) [Compound 5j]
inhibition at 50 µM [1]: 38.72 ± 0.15% | inhibition at 50 µM (COS-7 cells): 7.52 ± 0.15%

Compound: COc1ccc(C2NCCC23C(=O)Nc2ccccc23)cc1OC (centres unmarked) [Compound 5g]
inhibition at 50 µM [1]: 25.29 ± 0.24% | inhibition at 50 µM (COS-7 cells): 2.39 ± 0.23%

Compound: O=C1Nc2ccccc2C12CCNC2c1cc(C(F)(F)F)ccc1C(F)(F)F (centres unmarked) [Compound 5m]
inhibition at 50 µM [1]: 31.81 ± 0.11% | inhibition at 50 µM (COS-7 cells): -0.51 ± 0.29%

Compound: COc1cccc(C2NCCC23C(=O)Nc2ccccc23)c1 (centres unmarked) [Compound 5f]
inhibition at 50 µM [1]: 38.48 ± 0.18% | inhibition at 50 µM (COS-7 cells): 34.87 ± 0.17%
